Measurements published in patent US8221738B2, “Method for enhanced uptake of viral vectors in the myocardium” (Celladon Corporation, priority 2008, dated 2012).

Experiments:
[1] = Hemodynamic monitoring (mean aortic/arterial pressure) during administration of AAV1/SERCA2a; format: in vivo, Göttingen Minipigs; settings: Groups 3 and 4 (nitroglycerin treated animals); maximum; except one time point in group 4
Experimental: (§1) Administration on Day 0 was via the direct coronary infusion procedure described below. Animals from Groups 1-3 were dosed with a total volume of 12 mL of AAV1/SERCA2a solution which was infused at a constant rate of 1.2 mL/minute over a 10 minute period. Animals from Groups 3 and 4 received nitroglycerin as a bolus intracoronary injection immediately prior to administration of AAV1/SERCA2a. Animals from Group 3 were dosed with a total volume of 12 mL of AAV1/SERCA2a and nitroglycerin solution, which was infused at a constant rate of 1.2 mL/minute over a 10 minute period. Animals from Group 4 were dosed with a total volume of 12 mL of normal saline, which was infused at a constant rate of 1.2 mL/minute over a 10 minute period. The direct infusion system is composed of standard (commercially available) components including a conventional guide sheath, 0.014″ guide-wire, a 5F infusion (guide) catheter and two programmable syringe pumps. The direct intracoronary infusion procedure began with introduction of the conventional guide sheath using a common carotid arterial or femoral arterial approach. The Coronary Infusion Catheter (e.g., Cordis Vista Brite Tip Guiding Catheter or similar model appropriate for cannulation of the left main coronary artery) was then placed in the left main coronary artery under fluoroscopic guidance. […]

SERCA2a mRNA = SERCA2a mRNA expression via RT-PCR in heart sections, 30 day single dose tissue distribution study; format: in vivo, Göttingen Minipigs; settings: nitroglycerin given with AAV1/SERCA2a; especially deep myocardial regions (septum, middle layer anterior wall)
Experimental: as §1, with “pumps.” for “pumps. The direct intracoronary infusion procedure began with introduction of the conventional guide sheath using a common carotid arterial or femoral arterial approach. The Coronary Infusion Catheter (e.g., Cordis Vista Brite Tip Guiding Catheter or similar model appropriate for cannulation of the left main coronary artery) was then placed in the left main coronary artery under fluoroscopic guidance.”
Total mRNA and protein expression in the left ventricle of individual sections was calculated (sum of sections 1-10 in FIG. 1), and the septum (section #5 in FIG. 1), and the middle layer anterior wall (section #6 in FIG. 1) were also analyzed separately, as these regions represent deep myocardium, furthest from the site of infusion. […]

## O=[N+]([O-])OCC(CO[N+](=O)[O-])O[N+](=O)[O-] [nitroglycerin, glyceryl trinitrate]
[1]
  decrease in Mean arterial pressure (MAP) compared to baseline: ≤ 6 mm Hg
SERCA2a mRNA
  vector uptake: enhanced
